The record followed here is ChEMBL document CHEMBL4651402, “Screening of ~5500 FDA-approved drugs and clinical candidates for anti-SARS-CoV-2 activity” (2021).

Some results are limits rather than exact numbers.

The experiment concerns SARS-CoV-2. As to the kind of experiment: microbe, parasite or virus in culture. The settings on record: Severe acute respiratory syndrome coronavirus 2, Vero C1008, 48 h.

As to `O=c1[nH]c2ccccc2n1CCN1CCN(c2cccc(C(F)(F)F)c2)CC1` [FLIBANSERIN], the IC50 is > 20 µM. Under “read-out: pIC50 (converted)”, the IC50 is > 20 µM.

As for `COc1ccc(Cl)cc1[C@]1(F)C(=O)Nc2cc(C(F)(F)F)ccc21` [FLINDOKALNER], the IC50 was > 20 µM. Moreover, for the setting “read-out: pIC50 (converted)”, the IC50 is > 20 µM.

`O=C(OCC(O)CO)c1ccccc1Nc1ccnc2c(C(F)(F)F)cccc12` (centres undefined) [FLOCTAFENINE]: the IC50 is > 20 µM. The IC50 (read-out: pIC50 (converted)) was > 20 µM.

For the compound `CNc1ccc(/C=C/c2ccc(OCCOCCOCCF)nc2)cc1` [FLORBETAPIR], the IC50 was > 20 µM. The IC50 (read-out: pIC50 (converted)) was > 20 µM.

Turning to `Fc1ccc(-c2ccc3c(c2)[nH]c2ccncc23)cn1` [FLORTAUCIPIR], the IC50 was > 20 µM. Also, where the note is “read-out: pIC50 (converted)”, the IC50 was > 20 µM.

As for `Cn1cc([S+](C)[O-])c(=O)c2ccc(F)cc21` (centres undefined) [FLOSEQUINAN], the IC50 is > 20 µM. In addition, the IC50 (read-out: pIC50 (converted)) was > 20 µM.

Turning to `Cc1onc(-c2c(F)cccc2Cl)c1C(=O)N[C@@H]1C(=O)N2[C@@H]1SC(C)(C)[C@@H]2C(=O)O` [FLOXACILLIN], the IC50 is > 20 µM. The IC50 (read-out: pIC50 (converted)) was > 20 µM.

As for `O=c1[nH]c(=O)n([C@H]2C[C@H](O)[C@@H](CO)O2)cc1F` [FLOXURIDINE], the IC50 was > 20 µM. Besides, the IC50 (read-out: pIC50 (converted)) was > 20 µM.

With `COc1ccccc1N1CCN(CCCC(=O)c2ccc(F)cc2)CC1` [FLUANISONE], the IC50 is > 20 µM. Also, the IC50 (read-out: pIC50 (converted)) is > 20 µM.

Regarding `COC(=O)Nc1nc2cc(C(=O)c3ccc(F)cc3)ccc2[nH]1` [FLUBENDAZOLE], the IC50 is > 20 µM. Moreover, the IC50 (read-out: pIC50 (converted)) is > 20 µM.

On to `CN(C)C1CCc2[nH]c3c(F)cc(F)cc3c2C1` (centres undefined) [FLUCINDOLE], for which the IC50 was > 20 µM. Also, the IC50 (read-out: pIC50 (converted)) is > 20 µM.

Turning to `OC(Cn1cncn1)(Cn1cncn1)c1ccc(F)cc1F` [FLUCONAZOLE], the IC50 was > 20 µM. The IC50 (read-out: pIC50 (converted)) was > 20 µM.

For `Nc1nc(=O)[nH]cc1F` [FLUCYTOSINE], the IC50 was > 20 µM. Under “read-out: pIC50 (converted)”, the IC50 was > 20 µM.

Turning to `Nc1nc(F)nc2c1ncn2[C@@H]1O[C@H](COP(=O)(O)O)[C@@H](O)[C@@H]1O` [FLUDARABINE PHOSPHATE], the IC50 was > 20 µM. Moreover, where the note is “read-out: pIC50 (converted)”, the IC50 is > 20 µM.

As for `O=C(C[n+]1ccn(CC(OCc2ccc(Cl)cc2Cl)c2ccc(Cl)cc2Cl)c1)c1ccc(F)cc1` (centres undefined) [FLUDAZONIUM], the IC50 was > 20 µM. The IC50 (read-out: pIC50 (converted)) is > 20 µM.

`CN1C(=O)CN=C(c2ccccc2F)c2cc(Cl)ccc21` [FLUDIAZEPAM]: the IC50 is > 20 µM. Moreover, where the note is “read-out: pIC50 (converted)”, the IC50 was > 20 µM.

As for `N#Cc1c[nH]cc1-c1cccc2c1OC(F)(F)O2` [FLUDIOXONIL], the IC50 is > 20 µM. The IC50 (read-out: pIC50 (converted)) was > 20 µM.

On to `O=C(O)c1ccccc1Nc1cccc(C(F)(F)F)c1` [FLUFENAMIC ACID], for which the IC50 is > 20 µM. Further, under “read-out: pIC50 (converted)”, the IC50 was > 20 µM.

With `CC(=O)Oc1ccc(-c2ccc(F)cc2)cc1C(=O)O` [FLUFENISAL], the IC50 is > 20 µM. The IC50 (read-out: pIC50 (converted)) is > 20 µM.

With `Cn1c(=O)c2c(ncn2CCN2CCC(C(=O)c3ccc(F)cc3)CC2)n(C)c1=O` [FLUFYLLINE], the IC50 is > 20 µM. The IC50 (read-out: pIC50 (converted)) was > 20 µM.

As for `O=C1c2ccccc2C(=O)C1c1ccc(F)cc1` [FLUINDIONE], the IC50 is > 20 µM. For the same compound, the IC50 (read-out: pIC50 (converted)) is > 20 µM.

On to `CCOC(=O)c1ncn2c1CN(C)C(=O)c1cc(F)ccc1-2` [FLUMAZENIL], for which the IC50 is > 20 µM. Under “read-out: pIC50 (converted)”, the IC50 is > 20 µM.

On to `CC1CCc2cc(F)cc3c(=O)c(C(=O)O)cn1c23` (centres undefined) [FLUMEQUINE], for which the IC50 was > 20 µM. In addition, for the setting “read-out: pIC50 (converted)”, the IC50 is > 20 µM.

As for `C[C@@H]1C[C@H]2[C@@H]3C[C@H](F)C4=CC(=O)C=C[C@]4(C)[C@@]3(F)[C@@H](O)C[C@]2(C)[C@@]1(O)C(=O)CO` [FLUMETHASONE], the IC50 was > 20 µM. Besides, for the setting “read-out: pIC50 (converted)”, the IC50 was > 20 µM.

For the compound `NC1=NCC(c2ccc(C(F)(F)F)cc2)O1` (centres undefined) [FLUMINOREX], the IC50 was > 20 µM. Under “read-out: pIC50 (converted)”, the IC50 is > 20 µM.

`COc1ccc(-c2nc(C(F)(F)F)[nH]c2-c2ccc(OC)cc2)cc1` [FLUMIZOLE]: the IC50 was > 20 µM. In addition, under “read-out: pIC50 (converted)”, the IC50 was > 20 µM.

On to `O=[N+]([O-])c1cnc(-c2ccc(F)cc2)n1CCO` [FLUNIDAZOLE], for which the IC50 was > 20 µM. Moreover, the IC50 (read-out: pIC50 (converted)) is > 20 µM.

`CC1(C)O[C@@H]2C[C@H]3[C@@H]4C[C@H](F)C5=CC(=O)C=C[C@]5(C)[C@H]4[C@@H](O)C[C@]3(C)[C@]2(C(=O)CO)O1` [FLUNISOLIDE]: the IC50 is > 20 µM. Moreover, where the note is “read-out: pIC50 (converted)”, the IC50 was > 20 µM.

On to `CN1C(=O)CN=C(c2ccccc2F)c2cc([N+](=O)[O-])ccc21` [FLUNITRAZEPAM], for which the IC50 is > 20 µM. Also, the IC50 (read-out: pIC50 (converted)) is > 20 µM.

Regarding `Cc1c(Nc2ncccc2C(=O)O)cccc1C(F)(F)F` [FLUNIXIN], the IC50 is > 20 µM. For the same compound, the IC50 (read-out: pIC50 (converted)) is > 20 µM.

`CC1(C)O[C@@H]2C[C@H]3[C@@H]4C[C@H](F)C5=CC(=O)C=C[C@]5(C)[C@@]4(F)[C@@H](O)C[C@]3(C)[C@]2(C(=O)CO)O1` [FLUOCINOLONE ACETONIDE]: the IC50 was > 20 µM. Under “read-out: pIC50 (converted)”, the IC50 was > 20 µM.

Consider `CC(=O)OCC(=O)[C@@]12OC(C)(C)O[C@@H]1C[C@H]1[C@@H]3C[C@H](F)C4=CC(=O)C=C[C@]4(C)[C@@]3(F)[C@@H](O)C[C@@]12C` [FLUOCINONIDE], for which the IC50 is > 20 µM. Further, the IC50 (read-out: pIC50 (converted)) is > 20 µM.

On to `O=c1[nH]cc(F)c(=O)[nH]1` [FLUOROURACIL], for which the IC50 is > 20 µM. Also, the IC50 (read-out: pIC50 (converted)) was > 20 µM.

For `CNCCC(Oc1ccc(C(F)(F)F)cc1)c1ccccc1` (centres undefined) [FLUOXETINE], the IC50 was > 20 µM. Further, the IC50 (read-out: pIC50 (converted)) is > 20 µM.

Take `CN1CCN(C2=Nc3cc(F)ccc3Cc3ccccc32)CC1` [FLUPERLAPINE]: the IC50 was > 20 µM. The IC50 (read-out: pIC50 (converted)) is > 20 µM.

In the case of `CCCCCCCCCC(=O)OCCN1CCN(CCCN2c3ccccc3Sc3ccc(C(F)(F)F)cc32)CC1` [FLUPHENAZINE DECANOATE], the IC50 is > 20 µM. Besides, the IC50 (read-out: pIC50 (converted)) was > 20 µM.

Regarding `CCCCCCC(=O)OCCN1CCN(CCCN2c3ccccc3Sc3ccc(C(F)(F)F)cc32)CC1` [FLUPHENAZINE ENANTHATE], the IC50 is > 20 µM. Besides, the IC50 (read-out: pIC50 (converted)) is > 20 µM.

With `Cc1ccc2c(-c3ccc(F)cc3)nc(=O)n(C(C)C)c2c1` [FLUPROQUAZONE], the IC50 is > 20 µM. Further, where the note is “read-out: pIC50 (converted)”, the IC50 was > 20 µM.

Regarding `CC1(C)O[C@@H]2C[C@H]3[C@@H]4C[C@H](F)C5=CC(=O)CC[C@]5(C)[C@H]4[C@@H](O)C[C@]3(C)[C@]2(C(=O)CO)O1` [FLURANDRENOLIDE], the IC50 is > 20 µM. Also, the IC50 (read-out: pIC50 (converted)) was > 20 µM.

In the case of `CCN(CC)CCN1C(=O)CN=C(c2ccccc2F)c2cc(Cl)ccc21` [FLURAZEPAM], the IC50 was > 20 µM. Where the note is “read-out: pIC50 (converted)”, the IC50 was > 20 µM.

As to `O=C(O)c1cccc2c1Nc1cc(C(F)(F)F)ccc1S2` [FLUTIAZIN], the IC50 was > 20 µM. Besides, the IC50 (read-out: pIC50 (converted)) is > 20 µM.

As to `CCC(=O)O[C@]1(C(=O)SCF)[C@H](C)C[C@H]2[C@@H]3C[C@H](F)C4=CC(=O)C=C[C@]4(C)[C@@]3(F)[C@@H](O)C[C@@]21C` [FLUTICASONE PROPIONATE], the IC50 was > 20 µM. The IC50 (read-out: pIC50 (converted)) was > 20 µM.
